Data: patent EP3498266A1, “FORMULATIONS OF COPANLISIB” (priority 2017, dated 2019)
Like-named read-outs stand apart in the source and are kept apart here.

How the values were obtained:
[1] = Solubility of copanlisib dihydrochloride, flask method, HPLC; type: physicochemical; details: for Descriptive term: according to Ph. Eur./USP; for solubility at 19 h: 25 °C, thermodynamic from solid
Text: The suspension was centrifuged before HPLC analysis.

[2] = Hydrolytic (chemical) stability in aqueous solution, HPLC; type: physicochemical
Protocol: The different aqueous solutions (0.05 % copanlisib; after addition of 50 % 2-propanol, [buffer solution filtered with 0.5µm membrane filter]) were stored at 25°C and 70°C for 24 h and one week. An analytical HPLC-method has been developed to determine assay and organic impurities of copanlisib as well as degradation products. Table 2 : Results on hydrolytic stability of copanlisib

[3] = system: indolent B-cell non-Hodgkin lymphoma
Protocol: Methods: Patients with indolent B-cell non-Hodgkin lymphoma (4 subtypes: follicular (FL), marginal zone (MZL), small lymphocytic (SLL) and lymphoplasmacytoid/Waldenström macroglobulinemia (LPL-WM)) and relapsed after, or refractory to, ≥2 prior lines of treatment were eligible. […] Copanlisib (60 mg, I.V.) was intermittently administered on days 1, 8 and 15 of a 28-day cycle.

[4] = full analysis set, 142 patients

## COc1c(OCCCN2CCOCC2)ccc2c1N=C(NC(=O)c1cnc(N)nc1)N1CCN=C21.Cl.Cl [copanlisib dihydrochloride, 2-amino-N-[7-methoxy-8-(3-morpholin-4-ylpropoxy)-2,3-dihydroimidazo[1,2-c]quinazolin-5-yl]pyrimidine-5-carboxamide dihydrochloride]
[1]; 0.1 M Hydrochloric acid
  Descriptive term: freely soluble
[1]; 0.1 M hydrochloric acid, simulated gastric fluid
  solubility at 19 h: 190 mg/mL
[1]; aqueous buffer, Buffer (citrate) pH 3
  solubility at 19 h: 250 mg/mL
[1]; aqueous buffer, Buffer (citrate) pH 4
  solubility at 19 h: 25 mg/mL
[1]; aqueous buffer, Buffer (citrate) pH 5
  solubility at 19 h: 0.62 mg/mL
[1]; aqueous buffer, Buffer (phosphate) pH 1
  solubility at 19 h: 510 mg/mL
[1]; aqueous buffer, Buffer (phosphate) pH 2
  solubility at 19 h: 250 mg/mL
[1]; aqueous buffer, Buffer (phosphate) pH 6
  solubility at 19 h: 0.001 mg/mL
[1]; Buffer (citrate) pH 3
  Descriptive term: freely soluble
[1]; Buffer (citrate) pH 4
  Descriptive term: soluble
[1]; Buffer (citrate) pH 5
  Descriptive term: very slightly soluble
[1]; Buffer (phosphate) pH 1
  Descriptive term: freely soluble
[1]; Buffer (phosphate) pH 2
  Descriptive term: freely soluble
[1]; Buffer (phosphate) pH 6
  Descriptive term: practically insoluble
[1]; Buffer (phosphate) pH 7
  Descriptive term: practically insoluble
[1]; Water
  Descriptive term: freely soluble
[1]; water
  solubility at 19 h: 230 mg/mL

## COc1c(OCCCN2CCOCC2)ccc2c1N=C(NC(=O)c1cnc(N)nc1)N1CCN=C21 [copanlisib, 2-amino-N-[7-methoxy-8-(3-morpholin-4-ylpropoxy)-2,3-dihydroimidazo[1,2-c]quinazolin-5-yl]pyrimidine-5-carboxamide]
[2]; 0.1M HCl, 1 week, 25°C
  Appearance: slightly colored solution
[2]; 0.1M HCl, 1 week, 70°C
  Appearance: slightly colored solution
[2]; 0.1M HCl, 24 h, 25°C
  Appearance: slightly colored solution
[2]; 0.1M HCl, 24h, 70°C
  Appearance: slightly colored solution
[2]; 0.1M HCl, Initial
  Appearance: slightly colored solution
[2]; 0.1 M NaOH, 1week, 25°C
  Appearance: slightly colored solution
[2]; 0.1 M NaOH, 1week, 70°C
  Appearance: slightly colored solution
[2]; 0.1 M NaOH, 24 h, 25°C
  Appearance: slightly colored solution
[2]; 0.1 M NaOH, 24h, 70°C
  Appearance: slightly colored solution
[2]; 0.1 M NaOH, Initial
  Appearance: slightly colored solution
[2]; Buffer pH 7, 1 week, 25°C
  Appearance: slightly colored turbid solution
[2]; Buffer pH 7, 1 week, 70°C
  Appearance: slightly colored solution
[2]; Buffer pH 7, 24 h, 25°C
  Appearance: slightly colored turbid solution
[2]; Buffer pH 7, 24 h, 70°C
  Appearance: slightly colored solution
[2]; Buffer pH 7, Initial
  Appearance: slightly colored turbid solution
[2]; Water, 1 week, 25°C
  Appearance: slightly colored solution
[2]; Water, 1 week, 70°C
  Appearance: slightly colored solution
[2]; Water, 24 h, 25°C
  Appearance: slightly colored solution
[2]; Water, 24h, 70°C
  Appearance: slightly colored solution
[2]; Water, Initial
  Appearance: slightly colored solution
[3]; FL subset
  CR: 14.4%
  ORR: 58.7%
  PR: 44.2%
[3]; FL subset (range 0-687)
  estimated Kaplan-Meier (KM) median duration of response: 370 days
[3]; MZL subset
  CR: 8.7%
  ORR: 69.6%
  PR: 60.9%
[3]; all grade
  AEs of interest: colitis: 0.7%
  AEs of interest: diarrhea: 18%
  AEs of interest: lung infection: 14%
  AEs of interest: neutropenia: 25%
  AEs of interest: pneumonitis: 7%
  treatment-related adverse events: hypertension: 29%
[3]; all grade, 60 mg I.V. days 1, 8, 15 of 28-day cycle
  treatment-related adverse events: transient hyperglycemia: 49%
[3]; all-grade
  Laboratory toxicities: alanine aminotransferase: 23%
  Laboratory toxicities: aspartate aminotransferase: 28%
[3]; at the time of primary analysis
  Median overall survival: had not yet been reached
[3]; full analysis set
  complete response (CR): 12.0%
[3]; full analysis set (range 0-687)
  estimated Kaplan-Meier (KM) median duration of response: 687 days
[3]; [4]
  colonic perforations: No colonic perforations occurred
  deaths: 6
  non-fatal opportunistic infections: two
[3]; human, in vivo
  AEs of interest: colitis: 0.7%
  AEs of interest: diarrhea: 4%
  AEs of interest: lung infection: 11%
  AEs of interest: neutropenia: 19%
  AEs of interest: pneumonitis: 1.4%
  Laboratory toxicities: alanine aminotransferase: 19%
  Laboratory toxicities: aspartate aminotransferase: 25%
  treatment-related adverse events: hypertension: 23%
  treatment-related adverse events: transient hyperglycemia: 40%
[3]; lung infection, respiratory failure, and a thromboembolic event
  deaths attributed to copanlisib: 3
[3]; range 0-736
  KM-estimate of median PFS: 340 days
